Patent publication US6989389B2, “Aryl ether substituted imidazoquinolines” (3M Innovative Properties Co., priority 2000, dated 2006)
Structures can show the parent of a compound that is named as a salt. Where two headings read alike, the source gives them in different places.

Assays:
[1] = tested on: Peripheral blood mononuclear cells (PBMC); test: Cytokine Induction in Human Cells (in vitro human blood cell system, IFN and TNF secreted into culture media); format: cell-based; design: key to Lowest Effective Concentration (μM) Tumor Necrosis Factor / Lowest Effective Concentration (μM) Interferon: *: no induction was seen at any of the tested concentrations; settings: 18 to 24 hours, tested 30-0.014 μM; for minimal effective concentration: Homo sapiens, PBMC
Excerpt: An in vitro human blood cell system is used to assess cytokine induction. Activity is based on the measurement of interferon and tumor necrosis factor (α) (IFN and TNF, respectively) secreted into culture media as described by Testerman et. al. In “Cytokine Induction by the Immunomodulators Imiquimod and S-27609”, Journal of Leukocyte Biology, 58, 365-372 (September, 1995).
Whole blood from healthy human donors is collected by venipuncture into EDTA vacutainer tubes. Peripheral blood mononuclear cells (PBMC) are separated from whole blood by density gradient centrifugation using Histopaque®-1077. Blood is diluted 1:1 with Dulbecco's Phosphate Buffered Saline (DPBS) or Hank's Balanced Salts Solution (HBSS). The PBMC layer is collected and washed twice with DPBS or HBSS and resuspended at 4×10^6 cells/mL in RPMI complete. The PBMC suspension is added to 48 well flat bottom sterile tissue culture plates (Costar, Cambridge, Mass. or Becton Dickinson Labware, Lincoln Park, N.J.) containing an equal volume of RPMI complete media containing test compound.
The compounds are solubilized in dimethyl sulfoxide (DMSO). The DMSO concentration should not exceed a final concentration of 1% for addition to the culture wells. The compounds are generally tested at concentrations ranging from 30-0.014 μM.
The solution of test compound is added at 60 μM to the first well containing RPMI complete and serial 3 fold dilutions are made in the wells. The PBMC suspension is then added to the wells in an equal volume, bringing the test compound concentrations to the desired range (30-0.014 μM). The final concentration of PBMC suspension is 2×10^6 cells/mL. The plates are covered with sterile plastic lids, mixed gently and then incubated for 18 to 24 hours at 37° C. in a 5% carbon dioxide atmosphere.
Following incubation the plates are centrifuged for 10 minutes at 1000 rpm (˜200×g) at 4° C. The cell-free culture supernatant is removed with a sterile polypropylene pipet and transferred to sterile polypropylene tubes. Samples are maintained at −30 to −70° C. until analysis. The samples are analyzed for interferon (α) by ELISA and for tumor necrosis factor (α) by ELISA or IGEN Assay.
Interferon (α) concentration is determined by ELISA using a Human Multi-Species kit from PBL Biomedical Laboratories, New Brunswick, N.J. Results are expressed in pg/mL.
Tumor necrosis factor (α) (TNF) concentration is determined using ELISA kits available from Biosource International, Camarillo, Calif. Alternately, the TNF concentration can be determined by Origen® M-Series Immunoassay and read on an IGEN M-8 analyzer from IGEN International, Gaithersburg, Md. The immunoassay uses a human TNF capture and detection antibody pair from Biosource International, Camarillo, Calif. Results are expressed in pg/mL.
The table below lists the lowest concentration found to induce interferon and the lowest concentration found to induce tumor necrosis factor for each compound.

[2] = lowest concentration found to induce interferon (α), ELISA, read-out: Lowest Effective Concentration (μM) Interferon
[3] = lowest concentration found to induce tumor necrosis factor (α), ELISA or IGEN assay, read-out: Lowest Effective Concentration (μM) Tumor Necrosis Factor
[4] = lowest concentration found to induce tumor necrosis factor (α), ELISA or IGEN assay
[5] = lowest concentration found to induce interferon (α), ELISA

Row | melting point [°C] | SMILES | minimal effective concentration [1, 2] [µM] | minimal effective concentration [1, 3] [µM] | Lowest Effective Concentration (μM) Tumor Necrosis Factor [1, 4] | Lowest Effective Concentration (μM) Interferon [1, 5]
1 | 239 to 241 | CC(C)c1ccccc1C#CCOCCn1cnc2c(N)nc3ccccc3c21 (as salt: hydrochloride) [Example 7, 1-(2-{[3-(2-Isopropylphenyl)-2-propynyl]oxy}ethyl)-1H-imidazo[4,5-c]quinolin-4-amine Hydrochloride] | – | – | – | –
2 | 128 to 134 | CCOCc1nc2c(N)nc3ccccc3c2n1CCOCCCc1ccccc1 (as salt: hydrochloride) [Example 16, 2-(Ethoxymethyl)-1-[2-(3-phenylpropoxy)ethyl]-1H-imidazo[4,5-c]quinolin-4-amine Hydrochloride] | – | – | – | –
3 | 179 to 181 | Nc1nc2ccccc2c2c1ncn2CCOCCCc1ccc(-n2cccc2)cc1 (as salt: trifluoroacetate) [Example 11, 1-(2-{3-[4-(1H-1-Pyrrolyl)phenyl]propoxy}ethyl)-1H-imidazo[4,5-c]quinolin-4-amine trifluoroacetate] | – | – | – | –
4 | 138 to 140 | Nc1nc2ccccc2c2c1ncn2CCOCCCc1cccc(C(=O)O)c1 (as salt: trifluoroacetate) [Example 12, 3-{3-[2-(4-Amino-1H-imidazo[4,5-c]quinolin-1-yl)ethoxy]propyl}benzoic acid bis(trifluoroacetate)] | – | – | – | –
5 | 186 to 188 | Nc1nc2ccccc2c2c1ncn2CCOCCCc1ccccc1C(=O)O (as salt: trifluoroacetate) [Example 13, 2-{3-[2-(4-Amino-1H-imidazo[4,5-c]quinolin-1-yl)ethoxy]propyl}benzoic acid trifluoroacetate] | – | – | – | –
6 | 235 to 237 | Nc1nc2ccccc2c2c1ncn2CCOCCCc1ccc(C(=O)O)cc1 (as salt: trifluoroacetate) [Example 14, 4-{3-[2-(4-Amino-1H-imidazo[4,5-c]quinolin-1-yl)ethoxy]propyl}benzoic acid trifluoroacetate] | – | – | – | –
7 | 137 to 140 | CN(C)c1ccc(CCCOCCn2cnc3c(N)nc4ccccc4c32)cc1 (as salt: trifluoroacetate) [Example 114, 1-(2-{3-[4-(Dimethylamino)phenyl]propoxy}ethyl)-1H-imidazo[4,5-c]quinolin-4-amine] | – | – | – | –
8 | 225 to 227 | C#CCOCCn1cnc2c(N)nc3ccccc3c21 [Example 1, 1-[2-(2-Propynyloxy)ethyl]-1H-imidazo[4,5-c]quinolin-4-amine] | 0.12 | 1.11 | – | –
9 | 180 to 183 | N#Cc1ccccc1C#CCOCCn1cnc2c(N)nc3ccccc3c21 [Example 2, 2-{3-[2-(4-Amino-1H-imidazo[4,5-c]quinolin-1-yl)ethoxy]-1-propynyl}benzonitrile] | 1.11 | – | * | –
10 | – | CCCCc1nc2c(N)nc3c(c2n1CCOCc1cccc(C(F)(F)F)c1)CCCC3 [Example 92] | 3.33 | 3.33 | – | –
11 | – | CCCCc1nc2c(N)nc3c(c2n1CCOCc1ccc(C#N)cc1)CCCC3 [Example 93] | 0.12 | 10 | – | –
12 | – | CCCCc1nc2c(N)nc3c(c2n1CCOCc1cccc(C#N)c1)CCCC3 [Example 94] | 0.01 | 3.33 | – | –
13 | – | CCCCc1nc2c(N)nc3c(c2n1CCOCc1ccc(C(C)(C)C)cc1)CCCC3 [Example 95] | 1.11 | – | * | –
14 | – | CC(Cn1cnc2c(N)nc3ccccc3c21)Oc1ccccc1C#N (stereo not drawn) [Example 97] | 1.11 | – | * | –
15 | – | CC(Cn1cnc2c(N)nc3ccccc3c21)Oc1ccc(-n2ccnc2)cc1 (stereo not drawn) [Example 98] | 0.37 | – | * | –
16 | – | COc1ccc(OC(C)Cn2cnc3c(N)nc4ccccc4c32)cc1 (stereo not drawn) [Example 99] | 0.37 | – | * | –
17 | – | CC(Cn1cnc2c(N)nc3ccccc3c21)Oc1ccc(C(C)(C)CC(C)(C)C)cc1 (stereo not drawn) [Example 100] | – | – | * | *

Row | melting point [°C] | SMILES | minimal effective concentration [1, 2] [µM] | minimal effective concentration [1, 3] [µM] | Lowest Effective Concentration (μM) Tumor Necrosis Factor [1, 4] | Lowest Effective Concentration (μM) Interferon [1, 5]
18 | – | CCC(COc1ccc(-n2ccnc2)cc1)n1cnc2c(N)nc3ccccc3c21 (stereo not drawn) [Example 101] | 0.04 | 10 | – | –
19 | – | CCC(COc1ccccc1C#N)n1cnc2c(N)nc3ccccc3c21 (stereo not drawn) [Example 102] | 0.37 | – | * | –
20 | – | CCC(COc1ccc(C(C)(C)CC(C)(C)C)cc1)n1cnc2c(N)nc3ccccc3c21 (stereo not drawn) [Example 103] | – | 10 | – | *
21 | – | CCC(COc1ccc(NC(C)=O)cc1)n1cnc2c(N)nc3ccccc3c21 (stereo not drawn) [Example 104] | 0.12 | 10 | – | –
22 | – | Nc1nc2ccccc2c2c1ncn2CCOc1ccccc1 [Example 105, 1-(2-Phenoxyethyl)-1H-imidazo[4,5-c]quinolin-4-amine] | 0.37 | 1.11 | – | –
23 | – | CCC(COc1ccccc1)n1cnc2c(N)nc3ccccc3c21 (stereo not drawn) [Example 106, 1-[(1-Phenoxymethyl)propyl]-1H-imidazo[4,5-c]quinolin-4-amine] | 0.37 | – | * | –
24 | – | CC[C@H](COCCCc1ccccc1)n1cnc2c(N)nc3ccccc3c21 [Example 109, 1-{(1R)-1-[(3-Phenylpropoxy)methyl]propyl}-1H-imidazo[4,5-c]quinolin-4-amine] | 0.01 | 0.37 | – | –
25 | – | C[C@@H](COCc1ccc(C#N)cc1)Cn1cnc2c(N)nc3ccccc3c21 [Example 110] | 3.33 | – | * | –
26 | – | C[C@@H](COCc1ccc(C(C)(C)C)cc1)Cn1cnc2c(N)nc3ccccc3c21 [Example 111] | 3.33 | – | * | –
27 | – | C[C@@H](COCc1cccc(Cl)c1)Cn1cnc2c(N)nc3ccccc3c21 [Example 112] | – | – | * | *
28 | – | CN(C)c1ccc(CCCOCCn2cnc3c(N)nc4ccccc4c32)cc1 [Example 114, 1-(2-{3-[4-(Dimethylamino)phenyl]propoxy}ethyl)-1H-imidazo[4,5-c]quinolin-4-amine] | 0.12 | 0.37 | – | –
29 | – | Cc1nc2c(N)nc3ccccc3c2n1CCOCC#Cc1ccccc1 [Example 118, 2-Methyl-1-{2-[(3-phenylprop-2-ynyl)oxy]ethyl}-1H-imidazo[4,5-c]quinolin-4-amine] | 0.01 | 0.04 | – | –
30 | 191.7 to 192.6 | Nc1nc2ccccc2c2c1nc(CC1CC1)n2CCOc1ccccc1 [Example 137, 2-(Cyclopropylmethyl)-1-(2-phenoxyethyl)-1H-imidazo[4,5-c]quinolin-4-amine] | – | – | – | –
31 | – | CC[C@H](COCc1ccc(C#N)cc1)n1cnc2c(N)nc3ccccc3c21 [Example 142, 4-({[(2R)-2-(4-Amino-1H-imidazo[4,5-c]quinolin-1-yl)butyl]oxy}methyl)benzonitrile] | 0.04 | 0.04 | – | –
32 | – | CC[C@@H](COCc1ccc(C#N)cc1)n1cnc2c(N)nc3ccccc3c21 [Example 143, 4-({[(2S)-2-(4-Amino-1H-imidazo[4,5-c]quinolin-1-yl)butyl]oxy}methyl)benzonitrile] | 1.11 | 3.33 | – | –
33 | – | C#CCOCCn1c(CCOC)nc2c(N)nc3ccccc3c21 [Example 144, 2-(2-Methoxyethyl)-1-[2-(prop-2-ynyloxy)ethyl]-1H-imidazo[4,5-c]quinolin-4-amine] | 0.01 | 0.04 | – | –
